Source: ChEMBL document CHEMBL1201862, “PubChem BioAssay data set” (2004)
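Step 1: Grow cells in 96-well plates. Step 2: Expose to compound for 48 hours at 5 concentrations. Step 3: Interpolate endpoints linearly; if unreached, use highest concentration. GI50 = concentration required for 50% inhibition of growth.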 Active and inactive are the calls of the source. Cut-off read from the data, not from the text of the source: active = GI50 up to about 1.1 µM and inactive = higher. Peptide text beside a SMILES is read from it. * marks the point of attachment. Boc = CC(C)(C)OC(=O)*; OBn = c1ccc(CO*)cc1

Legend:
Experiment in all cases: NCI tumour cell line growth inhibition, 48 h
COLO 205 = system: COLO 205
DU-145 = system: DU-145
HCT-15 = system: HCT-15
HOP-92 = system: HOP-92
IGROV-1 = system: IGROV-1
K562 = system: K562
M14 = system: M14
MCF7 = system: MCF7
MDA-MB-435 = system: MDA-MB-435
MOLT-4 = system: MOLT-4
SF-268 = system: SF-268
SF-295 = system: SF-295
SK-MEL-28 = system: SK-MEL-28
SK-MEL-2 = system: SK-MEL-2
SNB-19 = system: SNB-19
T47D = system: T47D
U-251 = system: U-251
UACC-257 = system: UACC-257
HCC 2998 = system: HCC 2998
SNB-75 = system: SNB-75

| Structure (SMILES) | GI50 (COLO 205) | GI50 (DU-145) | GI50 (HCT-15) [µM] | GI50 (HOP-92) | GI50 (IGROV-1) | GI50 (K562) | GI50 (M14) | GI50 (MCF7) | GI50 (MDA-MB-435) | GI50 (MOLT-4) | GI50 (SF-268) | GI50 (SF-295) | GI50 (SK-MEL-28) | GI50 (SK-MEL-2) | GI50 (SNB-19) | GI50 (T47D) | GI50 (U-251) | GI50 (UACC-257) | GI50 (HCC 2998) | GI50 (SNB-75) |
| --- | --- | --- | --- | --- | --- | --- | --- | --- | --- | --- | --- | --- | --- | --- | --- | --- | --- | --- | --- | --- |
| O=c1[nH]nc(Cc2ccc(Cl)cc2)n1/N=C\c1ccc(/C=N/n2c(Cc3ccc(Cl)cc3)n[nH]c2=O)cc1 | > 100 µM (inactive) | > 100 µM (inactive) | > 100 | 28.3 µM (inactive) | > 100 µM (inactive) | > 100 µM (inactive) | > 100 µM (inactive) | > 100 µM (inactive) | > 100 µM (inactive) | > 100 µM (inactive) | 37.9 µM (inactive) | > 100 µM (inactive) | > 100 µM (inactive) | 38.5 µM (inactive) | 50.7 µM (inactive) | > 100 µM (inactive) | 26.6 µM (inactive) | > 100 µM (inactive) | – | – |
| Cc1ccc(C(CCO)CCO)nc1 | > 100 µM (inactive) | > 100 µM (inactive) | > 100 | > 100 µM (inactive) | – | – | > 100 µM (inactive) | > 100 µM (inactive) | > 100 µM (inactive) | > 100 µM (inactive) | > 100 µM (inactive) | > 100 µM (inactive) | > 100 µM (inactive) | > 100 µM (inactive) | > 100 µM (inactive) | > 100 µM (inactive) | > 100 µM (inactive) | > 100 µM (inactive) | > 100 µM (inactive) | > 100 µM (inactive) |
| O=C1/C(=C\c2cccc(Oc3ccccc3)c2)SC(c2ccccc2)N1c1cccc([N+](=O)[O-])c1 (configuration not stated) | > 100 µM (inactive) | > 100 µM (inactive) | > 100 | 45.7 µM (inactive) | – | 36.6 µM (inactive) | 65 µM (inactive) | 28.2 µM (inactive) | 41.6 µM (inactive) | 40.7 µM (inactive) | > 100 µM (inactive) | > 100 µM (inactive) | > 100 µM (inactive) | > 100 µM (inactive) | 65.3 µM (inactive) | > 100 µM (inactive) | 36.7 µM (inactive) | 97.3 µM (inactive) | > 100 µM (inactive) | – |
| CC1=CC(=O)/C(=C/NC(=S)Nc2ccccc2)C(=O)O1 | > 100 µM (inactive) | > 100 µM (inactive) | > 100 | > 100 µM (inactive) | > 100 µM (inactive) | > 100 µM (inactive) | > 100 µM (inactive) | > 100 µM (inactive) | > 100 µM (inactive) | > 100 µM (inactive) | > 100 µM (inactive) | > 100 µM (inactive) | – | > 100 µM (inactive) | > 100 µM (inactive) | > 100 µM (inactive) | > 100 µM (inactive) | > 100 µM (inactive) | > 100 µM (inactive) | > 100 µM (inactive) |
| O=C1N=C(SC(SC2=NC(=O)C3(NN2)c2ccccc2-c2ccccc23)=C(SC2=NC(=O)C3(NN2)c2ccccc2-c2ccccc23)SC2=NC(=O)C3(NN2)c2ccccc2-c2ccccc23)NNC12c1ccccc1-c1ccccc12 | 7.21 µM (inactive) | > 10 µM (inactive) | 3.62 | > 10 µM (inactive) | 8.2 µM (inactive) | 5.11 µM (inactive) | 8.71 µM (inactive) | 4.27 µM (inactive) | > 10 µM (inactive) | 0.437 µM (active) | > 10 µM (inactive) | > 10 µM (inactive) | > 10 µM (inactive) | – | > 10 µM (inactive) | 0.935 µM (active) | – | 5.64 µM (inactive) | > 10 µM (inactive) | 7.96 µM (inactive) |
| COc1cc2ncnc(NS(=O)(=O)c3cc4ccccc4s3)c2cc1OC | > 100 µM (inactive) | > 100 µM (inactive) | > 100 | 34 µM (inactive) | 81.5 µM (inactive) | 56.1 µM (inactive) | > 100 µM (inactive) | > 100 µM (inactive) | > 100 µM (inactive) | > 100 µM (inactive) | > 100 µM (inactive) | > 100 µM (inactive) | – | > 100 µM (inactive) | > 100 µM (inactive) | 25.2 µM (inactive) | > 100 µM (inactive) | > 100 µM (inactive) | > 100 µM (inactive) | 47.8 µM (inactive) |
| Cc1ccc(/C=C2\CN(C)CC3=C2N=C(S)NC3c2ccc(C)cc2)cc1 (configuration not stated) | 19 µM (inactive) | 34.4 µM (inactive) | 31.8 | 18.2 µM (inactive) | 47.2 µM (inactive) | 23.3 µM (inactive) | 27.3 µM (inactive) | 24.7 µM (inactive) | 8.63 µM (inactive) | – | 44.4 µM (inactive) | 36.9 µM (inactive) | > 100 µM (inactive) | 51.3 µM (inactive) | 73.5 µM (inactive) | > 100 µM (inactive) | 42.8 µM (inactive) | 7 µM (inactive) | 41.5 µM (inactive) | 10.2 µM (inactive) |
| O=C(O)/C(=C/C(=O)c1ccc(Cl)cc1)NNc1ccc([N+](=O)[O-])cc1[N+](=O)[O-] | > 100 µM (inactive) | 47.2 µM (inactive) | 48.3 | 22.9 µM (inactive) | 66.7 µM (inactive) | 36.9 µM (inactive) | 42.1 µM (inactive) | 52.4 µM (inactive) | 67.9 µM (inactive) | 42 µM (inactive) | 38.7 µM (inactive) | 41.4 µM (inactive) | 43.5 µM (inactive) | 31.7 µM (inactive) | 43.4 µM (inactive) | 55.5 µM (inactive) | 47.9 µM (inactive) | > 100 µM (inactive) | 59.8 µM (inactive) | – |
| CN1C=COC1N=C1CCCCC1 (configuration not stated) | > 100 µM (inactive) | > 100 µM (inactive) | > 100 | 75.7 µM (inactive) | > 100 µM (inactive) | > 100 µM (inactive) | > 100 µM (inactive) | > 100 µM (inactive) | > 100 µM (inactive) | > 100 µM (inactive) | > 100 µM (inactive) | > 100 µM (inactive) | > 100 µM (inactive) | > 100 µM (inactive) | 4.02 µM (inactive) | > 100 µM (inactive) | > 100 µM (inactive) | – | > 100 µM (inactive) | 41.4 µM (inactive) |
| COc1cc2c(cc1OC)C13CC[N+]4(C)CC5=CCOC6CC(=O)N2C1C6C5CC34[O-] (configuration not stated) | > 100 µM (inactive) | > 100 µM (inactive) | > 100 | > 100 µM (inactive) | > 100 µM (inactive) | > 100 µM (inactive) | > 100 µM (inactive) | > 100 µM (inactive) | > 100 µM (inactive) | > 100 µM (inactive) | > 100 µM (inactive) | > 100 µM (inactive) | > 100 µM (inactive) | – | > 100 µM (inactive) | > 100 µM (inactive) | > 100 µM (inactive) | > 100 µM (inactive) | – | > 100 µM (inactive) |
| CC(=O)OC[C@@]12C[C@H]3C(=O)C(C)(C)C[C@H]3[C@]1(C)[C@@H](OC(C)=O)[C@]1(O)[C@H]([C@@H](OC(=O)c3ccccc3)[C@@H](C)[C@H]1OC(C)=O)[C@H]2OC(C)=O | 8.71 µM (inactive) | > 20 µM (inactive) | > 20 | > 20 µM (inactive) | > 20 µM (inactive) | 6.87 µM (inactive) | > 20 µM (inactive) | > 20 µM (inactive) | > 20 µM (inactive) | 9.02 µM (inactive) | > 20 µM (inactive) | 15.3 µM (inactive) | – | > 20 µM (inactive) | > 20 µM (inactive) | > 20 µM (inactive) | > 20 µM (inactive) | > 20 µM (inactive) | > 20 µM (inactive) | > 20 µM (inactive) |
| CC(C)C1=CC23CCC4C(C)(C(=O)O)CCCC4(C)C2CC1C1C(=O)N(c2ccc(N4C(=O)C5C6CC7C8(C)CCCC(C)(C(=O)O)C8CCC7(C=C6C(C)C)C5C4=O)cc2)C(=O)C13 (configuration not stated) | 3.47 µM (inactive) | 4.71 µM (inactive) | 12.6 | 14.7 µM (inactive) | – | 4.35 µM (inactive) | 4.16 µM (inactive) | 3.33 µM (inactive) | 3.68 µM (inactive) | 3.51 µM (inactive) | 4.7 µM (inactive) | – | 4.49 µM (inactive) | 13.5 µM (inactive) | 4.75 µM (inactive) | 12.1 µM (inactive) | 4.28 µM (inactive) | – | 4.41 µM (inactive) | – |
| CC(C)(C)OC(=O)N(CCCN)CCCCN | > 100 µM (inactive) | > 100 µM (inactive) | > 100 | > 100 µM (inactive) | > 100 µM (inactive) | > 100 µM (inactive) | > 100 µM (inactive) | > 100 µM (inactive) | > 100 µM (inactive) | > 100 µM (inactive) | > 100 µM (inactive) | > 100 µM (inactive) | > 100 µM (inactive) | > 100 µM (inactive) | > 100 µM (inactive) | > 100 µM (inactive) | > 100 µM (inactive) | > 100 µM (inactive) | > 100 µM (inactive) | – |
| CC(C)CC(NC(=O)OC(C)(C)C)C(=O)NC(CC(=O)OCc1ccccc1)C(N)=O (stereo not drawn) (Boc-Leu-Asp(OBn)-NH2; configuration not given here) | > 100 µM (inactive) | > 100 µM (inactive) | > 100 | > 100 µM (inactive) | > 100 µM (inactive) | > 100 µM (inactive) | > 100 µM (inactive) | > 100 µM (inactive) | > 100 µM (inactive) | – | > 100 µM (inactive) | > 100 µM (inactive) | > 100 µM (inactive) | > 100 µM (inactive) | > 100 µM (inactive) | > 100 µM (inactive) | > 100 µM (inactive) | > 100 µM (inactive) | – | 17.3 µM (inactive) |
